Experimental data reported in patent US20170190671A1, “BIS(ARYL)CATECHOL DERIVATIVES AS HERBICIDES” (E I DU PONT DE NEMOURS AND COMPANY, priority 2014, published 2017).

Columns and labels:
Assay type in all cases: in vivo
Conditions in all cases: scale 0 to 100
[1] = test system: bluegrass (annual bluegrass, Poa annua); test: Test D preemergence
How it was run: (§1)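 Plants were kept in a controlled environment for 14 to 21 days after spraying, then compared with untreated controls. Scores run from 0, no effect, to 100, complete control; preemergence pots used silt loam and postemergence pots a peat-based medium.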

[2] = test system: kochia (Kochia scoparia); test: Test D preemergence
How it was run: as §1

[3] = test system: oilseed rape (Brassica napus); test: Test D preemergence
How it was run: as §1

[4] = test system: pigweed (Amaranthus retroflexus); test: Test D preemergence
How it was run: as §1

[5] = test system: spring wheat (Triticum aestivum); test: Test D preemergence
How it was run: as §1

[6] = test system: chamomile (scentless chamomile, Matricaria inodora); test: Test D postemergence
Source text: (§2) Seeds of plant species selected from bluegrass (annual bluegrass, Poa annua), blackgrass (Alopecurus myosuroides), canarygrass (Phalaris minor), chickweed (common chickweed, Stellaria media), cutleaf geranium (Geranium dissectum), galium (catchweed bedstraw, Galium aparine), downy bromegrass (Bromus tectorum), field poppy (Papaver rhoeas), field violet (Viola arvensis), green foxtail (Setaria viridis), deadnettle (henbit deadnettle, Lamium amplexicaule), Italian ryegrass (Lolium multiflorum), kochia (Kochia scoparia), lambsquarters (Chenopodium album), oilseed rape (Brassica napus), pigweed (Amaranthus retroflexus), chamomile (scentless chamomile, Matricaria inodora), Russian thistle (Salsola kali), speedwell (bird's-eye speedwell, Veronica persica), spring barley (Hordeum vulgare), spring wheat (Triticum aestivum), wild buckwheat (Polygonum convolvulus), wild mustard (Sinapis arvensis), wild oat (Avenafatua), wild radish (Raphanus raphanistrum), windgrass (Apera spica-venti), winter barley (Hordeum vulgare), and winter wheat (Triticum aestivum) were planted into a silt loam soil and treated preemergence with test chemicals formulated in a non-phytotoxic solvent mixture which included a surfactant.
(§3) At the same time, these species were planted in pots containing Redi-Earth® planting medium (Scotts Company, 14111 Scottslawn Road, Marysville, Ohio 43041) comprising spaghnum peat moss, vermiculite, wetting agent and starter nutrients and treated with postemergence applications of the test chemicals formulated in the same manner. Plants ranged in height from 2 to 18 cm (1- to 4-leaf stage). Treated plants and controls were maintained in a controlled growth environment for 14 to 21 days after which time all species were compared to controls and visually evaluated. Plant response ratings, summarized in Table D, are based on a scale of 0 to 100 where 0 is no effect and 100 is complete control. A dash (-) response means no test result.

[7] = test system: deadnettle (henbit deadnettle, Lamium amplexicaule); test: Test D postemergence
Source text: as §2, §3

[8] = test system: field violet (Viola arvensis); test: Test D postemergence
Source text: as §2, §3

[9] = test system: galium (catchweed bedstraw, Galium aparine); test: Test D postemergence
Source text: as §2, §3

[10] = test system: green foxtail (Setaria viridis); test: Test D postemergence
Source text: as §2, §3

[11] = test system: kochia (Kochia scoparia); test: Test D postemergence
Source text: as §2, §3

[12] = test system: lambsquarters (Chenopodium album); test: Test D postemergence
Source text: as §2, §3

[13] = test system: speedwell (bird's-eye speedwell, Veronica persica); test: Test D postemergence
Source text: as §2, §3

[14] = test system: spring barley (Hordeum vulgare); test: Test D postemergence
Source text: as §2, §3

[15] = test system: spring wheat (Triticum aestivum); test: Test D postemergence
Source text: as §2, §3

[16] = test system: wild mustard (Sinapis arvensis); test: Test D postemergence
Source text: as §2, §3

[17] = test system: wild radish (Raphanus raphanistrum); test: Test D postemergence
Source text: as §2, §3

[18] = test system: winter barley (Hordeum vulgare); test: Test D postemergence
Source text: as §2, §3

[19] = test system: winter wheat (Triticum aestivum); test: Test D postemergence
Source text: as §2, §3

## N#Cc1cccc(Oc2ncc(Cl)cn2)c1Oc1ncc(Cl)cn1 [Compound 3, 2,3-bis[(5-chloro-2-pyrimidinyl)oxy]benzonitrile]
[1]; 16 g ai/ha
  Plant response rating, Bluegrass: 0
[1]; 31 g ai/ha
  Plant response rating, Bluegrass: 0
[1]; 62 g ai/ha
  Plant response rating, Bluegrass: 25
[1]; 125 g ai/ha
  Plant response rating, Bluegrass: 85
[2]; 16 g ai/ha
  Plant response rating, Kochia: 100
[2]; 31 g ai/ha
  Plant response rating, Kochia: 100
[2]; 62 g ai/ha
  Plant response rating, Kochia: 100
[2]; 125 g ai/ha
  Plant response rating, Kochia: 100
[3]; 16 g ai/ha
  Plant response rating, Oilseed Rape: 10
[3]; 31 g ai/ha
  Plant response rating, Oilseed Rape: 25
[3]; 62 g ai/ha
  Plant response rating, Oilseed Rape: 35
[3]; 125 g ai/ha
  Plant response rating, Oilseed Rape: 100
[4]; 16 g ai/ha
  Plant response rating, Pigweed: 100
[4]; 31 g ai/ha
  Plant response rating, Pigweed: 100
[4]; 62 g ai/ha
  Plant response rating, Pigweed: 100
[4]; 125 g ai/ha
  Plant response rating, Pigweed: 100
[5]; 16 g ai/ha
  Plant response rating, Wheat, Spring: 0
[5]; 31 g ai/ha
  Plant response rating, Wheat, Spring: 0
[5]; 62 g ai/ha
  Plant response rating, Wheat, Spring: 10
[5]; 125 g ai/ha
  Plant response rating, Wheat, Spring: 20
[6]; 16 g ai/ha
  Plant response rating, Chamomile: 0
[6]; 31 g ai/ha
  Plant response rating, Chamomile: 0
[6]; 62 g ai/ha
  Plant response rating, Chamomile: 20
[6]; 125 g ai/ha
  Plant response rating, Chamomile: 35
[7]; 16 g ai/ha
  Plant response rating, Deadnettle: 60
[7]; 31 g ai/ha
  Plant response rating, Deadnettle: 70
[7]; 62 g ai/ha
  Plant response rating, Deadnettle: 70
[7]; 125 g ai/ha
  Plant response rating, Deadnettle: 80
[8]; 16 g ai/ha
  Plant response rating, Field Violet: 90
[8]; 31 g ai/ha
  Plant response rating, Field Violet: 100
[8]; 62 g ai/ha
  Plant response rating, Field Violet: 100
[8]; 125 g ai/ha
  Plant response rating, Field Violet: 100
[9]; 16 g ai/ha
  Plant response rating, Galium: 75
[9]; 31 g ai/ha
  Plant response rating, Galium: 95
[9]; 62 g ai/ha
  Plant response rating, Galium: 100
[9]; 125 g ai/ha
  Plant response rating, Galium: 100
[10]; 16 g ai/ha
  Plant response rating, Foxtail, Green: 10
[10]; 31 g ai/ha
  Plant response rating, Foxtail, Green: 15
[10]; 62 g ai/ha
  Plant response rating, Foxtail, Green: 20
[10]; 125 g ai/ha
  Plant response rating, Foxtail, Green: 40
[11]; 16 g ai/ha
  Plant response rating, Kochia: 85
[11]; 31 g ai/ha
  Plant response rating, Kochia: 100
[11]; 62 g ai/ha
  Plant response rating, Kochia: 100
[11]; 125 g ai/ha
  Plant response rating, Kochia: 100
[12]; 16 g ai/ha
  Plant response rating, Lambsquarters: 70
[12]; 31 g ai/ha
  Plant response rating, Lambsquarters: 80
[12]; 62 g ai/ha
  Plant response rating, Lambsquarters: 100
[12]; 125 g ai/ha
  Plant response rating, Lambsquarters: 100
[13]; 16 g ai/ha
  Plant response rating, Speedwell: 85
[13]; 31 g ai/ha
  Plant response rating, Speedwell: 85
[13]; 62 g ai/ha
  Plant response rating, Speedwell: 100
[13]; 125 g ai/ha
  Plant response rating, Speedwell: 100
[14]; 16 g ai/ha
  Plant response rating, Barley, Spring: 5
[14]; 31 g ai/ha
  Plant response rating, Barley, Spring: 10
[14]; 62 g ai/ha
  Plant response rating, Barley, Spring: 15
[14]; 125 g ai/ha
  Plant response rating, Barley, Spring: 20
[15]; 16 g ai/ha
  Plant response rating, Wheat, Spring: 0
[15]; 31 g ai/ha
  Plant response rating, Wheat, Spring: 0
[15]; 62 g ai/ha
  Plant response rating, Wheat, Spring: 5
[15]; 125 g ai/ha
  Plant response rating, Wheat, Spring: 15
[16]; 16 g ai/ha
  Plant response rating, Mustard, Wild: 45
[16]; 31 g ai/ha
  Plant response rating, Mustard, Wild: 60
[16]; 62 g ai/ha
  Plant response rating, Mustard, Wild: 65
[16]; 125 g ai/ha
  Plant response rating, Mustard, Wild: 85
[17]; 16 g ai/ha
  Plant response rating, Radish, Wild: 50
[17]; 31 g ai/ha
  Plant response rating, Radish, Wild: 60
[17]; 62 g ai/ha
  Plant response rating, Radish, Wild: 75
[17]; 125 g ai/ha
  Plant response rating, Radish, Wild: 85
[18]; 16 g ai/ha
  Plant response rating, Barley, Winter: 0
[18]; 31 g ai/ha
  Plant response rating, Barley, Winter: 5
[18]; 62 g ai/ha
  Plant response rating, Barley, Winter: 10
[18]; 125 g ai/ha
  Plant response rating, Barley, Winter: 15
[19]; 16 g ai/ha
  Plant response rating, Wheat, Winter: 0
[19]; 31 g ai/ha
  Plant response rating, Wheat, Winter: 10
[19]; 62 g ai/ha
  Plant response rating, Wheat, Winter: 10
[19]; 125 g ai/ha
  Plant response rating, Wheat, Winter: 15
